Each block holds one compound with its values, some of them ahead of it.
How the values were obtained:
CYP46A1 [1] = target: T1, CYP46A1 (Homo sapiens, UniProt Q9Y6A2); set-up: method as in PMID 32178974, PMID 34651220, PMID 37770111, PMID 36197966; conditions: in vivo; cited from earlier work
CYP46A1 [2] = target: T1, CYP46A1; experiment: CYP46A1 inhibition potency; assay type: biochemical
[3] = In vitro stability in saline; assay type: physicochemical; conditions: saline 18.5 MBq/mL, containing 5% ethanol, up to 60 min
Description: The ^18F-labeling nosylate precursor 6 was prepared via a procedure similar to that of compound 5 in 31% yield over two steps (Scheme S1). […] [^18F]5 was generated in a 13% decay-corrected radiochemical yield with a high molar activity of 93 GBq/μmol (2.5 Ci/ μmol).

Stability in mouse serum = assay type: in vitro ADME; conditions: 37 °C, up to 60 min
Description: (§1) Mouse serum (Sigma-Aldrich, cat. M5905, 0.4 mL), rat serum (Abcam, cat. ab7488, 0.4 mL), NHP serum (Abcam, cat. ab155109, 0.4 mL), and human serum (Sigma-Aldrich, cat. H4522, 0.4 mL) were incubated at 37 °C for 5 min. Then, formulated [^18F]5 was added and incubated at 37 °C (Benfluorex was used in the positive control test). At 5, 30, and 60 min after incubation with [^18F]5, 100 μL of the samples was drawn in centrifugal tubes and added to ice-cold MeCN (100 μL). The mixtures were centrifuged at 10,000g for 5 min, and the supernatants were analyzed by radio-HPLC.

Stability in rat serum = assay type: in vitro ADME; conditions: 37 °C, up to 60 min
Description: as §1

Stability in NHP serum = assay type: in vitro ADME; conditions: 37 °C, up to 60 min
Description: as §1

Stability in human serum = assay type: in vitro ADME; conditions: 37 °C, up to 60 min
Description: as §1

CYP46A1 [4] = target: T2, CYP46A1 (Rattus norvegicus, UniProt A0ACM8QFK4); experiment: Dynamic PET imaging in Sprague-Dawley rats; assay type: in vivo
T2 construct: from tissue; host or cells: rat brain (Sprague-Dawley rats)
Description: To investigate the in vivo binding specificity of [^18F]5 toward CYP46A1, dynamic PET imaging was performed in Sprague–Dawley (SD) rats (Figures 5 and S3 in the Supporting Information). […] Future studies will be required to evaluate its suitability in higher species and direct comparisons under identical experimental conditions. […] To investigate the reversibility of the tracer binding, we further performed a displacement study with Soticlestat at 20 min postadministration of [^18F]5 (Figure S4 in the Supporting Information).
The dynamic PET imaging study was performed in SD rats as previously reported.[21] A Genisys G8 PET scanner (Sofie Biosciences, USA) was used for dynamic PET imaging in rats with [^18F]5 (0.04 mCi) for 60 min. In the blocking study, rats were pretreated with Soticlestat (1 mg/kg, intravenous injection via the tail vein) 10 min before administration of [^18F]5. For the chase study, the rats were treated with Soticlestat (1 mg/kg, i.v.) 20 min after administration of [^18F]5.

[5] = Whole-body biodistribution in CD-1 mice; assay type: in vivo, mouse
Description: The biodistribution study was conducted in CD-1 mice as previously reported.[24] CD-1 mice were administrated with [^18F]5 (10 μCi) and divided into four groups and then euthanized at 5, 15, 30, and 60 min after administration of [^18F]5. Major organs were collected, weighed, and measured by a gamma counter.

[6] = Radiometabolite analysis in SD rats; assay type: in vivo, rat
Description: Radiometabolite analysis of [^18F]5 was conducted as previously reported.[25] SD rats were administrated with [^18F]5 and then euthanized at 20 and 60 min after administration of [^18F]5. The brains were collected, homogenized, and centrifuged with cold acetonitrile and PBS buffer. Then, the supernatants were injected into a radio-HPLC with unlabeled 5 as an internal standard. Both [^18F]5 and its ^18F-metabolites were collected by HPLC and then measured by a gamma counter. The same procedure was performed for the plasma.

[7] = logD by shake flask method; assay type: physicochemical; conditions: n-octanol/PBS
Description: The lipophilicity was measured according to a previous report.[21] In brief, [^18F]5, n-octanol (3 mL), and PBS (3 mL) were added in a centrifugal tube, followed by vortexing for 3 min and centrifugation (∼14,000 rpm) for 5 min. Then, PBS (around 500 μL) and n-octanol (around 50 μL) were weighed and measured by a gamma counter.

67 major CNS targets = experiment: Off-target binding screen at 10 μM (NIMH PDSP); conditions: 10 μM testing concentration; except sigma-2 receptor
Description: Furthermore, off-target binding assays of compound 5 were performed in vitro against 67 major CNS targets (Figure S1 in the Supporting Information).
1 Supporting Scheme, Figures, and Tables
Scheme S1. Synthesis of precursor 6. (i) azetidin-3-ol hydrochloride, triphosgene, NEt 3, dichloromethane, 0 °C to room temperature, 1 h; (ii) 4-nitrobenzenesulfonyl chloride, 4-(dimethylamino)pyridine, NEt3, dichloromethane, room temperature, 12 h, 31% yield over […]
% Inhibition of Target Activity
Figure S1. Off-target pharmacological evaluation of compound 5 against major CNS targets, including common GPCRs, enzymes, ion channels, and transporters: initial screening at a concentration of 10 μM (supported by the NIMH PDSP). All data are mean

CYP46A1 [8] = target: T2, CYP46A1; experiment: In vitro autoradiography with [^18F]5 on rat brain tissue sections; assay type: binding; conditions: displacement of [^18F]5 with unlabeled 5 at varying concentrations
Description: To assess the binding specificity of [^18F]5 for CYP46A1, in vitro autoradiography was performed by using rat brain tissue sections. […] The accumulation patterns are in agreement with the brain distribution of CYP46A1 in rodents.[18] […] Furthermore, [^18F]5 was utilized to assess the potency toward CYP46A1 through an inhibition assay based on an in vitro autoradiography study (Figure 4B). The assay was performed by the incubation of [^18F]5 on rat brain tissue sections in the presence of unlabeled 5 at varying concentrations.
The autoradiography study was conducted as previously reported.[22],[23] In brief, sagittal rat brain sections (20 μm) were incubated with Tris–HCl buffer (50 mM) at room temperature for 20 min and then incubated with [^18F]5 (1 μCi/mL). In the blocking study, the brain sections were incubated with [^18F]5 in the presence of Soticlestat, CHL2205, or 5 (10 μM). Then, the brain sections were washed with ice-cold Tris–HCl buffer (50 mM) for 2 min and cold distilled water for 10 s. Subsequently, the brain sections were dried, positioned on an imaging screen, and scanned by an Amersham Typhoon analyzer system.

T1 sequence (Q9Y6A2 whole entry, species assumed): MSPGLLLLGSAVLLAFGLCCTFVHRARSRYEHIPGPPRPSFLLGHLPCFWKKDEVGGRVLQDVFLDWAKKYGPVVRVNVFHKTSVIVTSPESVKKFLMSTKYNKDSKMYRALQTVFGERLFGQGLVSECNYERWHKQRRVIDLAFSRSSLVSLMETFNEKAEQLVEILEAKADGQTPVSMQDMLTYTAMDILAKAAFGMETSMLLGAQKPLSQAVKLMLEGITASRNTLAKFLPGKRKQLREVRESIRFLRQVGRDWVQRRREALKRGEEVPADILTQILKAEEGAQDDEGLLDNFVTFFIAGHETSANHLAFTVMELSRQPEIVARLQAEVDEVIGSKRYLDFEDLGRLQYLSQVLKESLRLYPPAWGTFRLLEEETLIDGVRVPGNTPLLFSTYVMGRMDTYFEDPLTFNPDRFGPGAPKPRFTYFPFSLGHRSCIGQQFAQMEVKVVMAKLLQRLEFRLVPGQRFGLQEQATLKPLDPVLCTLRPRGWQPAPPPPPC
T2 sequence (A0ACM8QFK4 29-500): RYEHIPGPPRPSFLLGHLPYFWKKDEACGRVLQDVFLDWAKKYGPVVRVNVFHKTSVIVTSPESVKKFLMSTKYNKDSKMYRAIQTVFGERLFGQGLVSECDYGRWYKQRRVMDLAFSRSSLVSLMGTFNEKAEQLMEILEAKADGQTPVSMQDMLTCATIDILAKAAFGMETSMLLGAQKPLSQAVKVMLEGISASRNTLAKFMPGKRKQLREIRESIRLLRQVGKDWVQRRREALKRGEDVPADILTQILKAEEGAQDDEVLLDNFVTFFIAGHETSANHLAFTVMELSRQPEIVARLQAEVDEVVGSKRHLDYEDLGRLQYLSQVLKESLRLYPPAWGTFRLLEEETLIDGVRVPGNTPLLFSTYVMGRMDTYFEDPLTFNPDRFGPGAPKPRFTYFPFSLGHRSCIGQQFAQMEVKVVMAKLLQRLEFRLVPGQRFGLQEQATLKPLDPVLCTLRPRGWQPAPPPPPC

SMILES: O=[11C](NCc1ccccc1)N1CCN(c2cncnc2-c2ccccc2)CC1 [[^11C]A]
binding specificity toward CYP46A1 (CYP46A1 [1]): marginal binding specificity | brain uptake (CYP46A1 [1]): low brain uptake

SMILES: O=C(C1CCN(c2cnccc2-n2cc(Cl)cn2)CC1)N1CC([18F])C1 [[^18F]3g]
binding specificity toward CYP46A1 (CYP46A1 [1]): good binding specificity | brain uptake (CYP46A1 [1]): high brain uptake

SMILES: O=C(C1CCN(c2cncnc2-c2ccc(F)cc2)CC1)N1CC([18F])C1 [[^18F]T-008]
binding specificity toward CYP46A1 (CYP46A1 [1]): good binding specificity | brain uptake (CYP46A1 [1]): high brain uptake

IC50 (CYP46A1 [2]): 0.11 nM | in vitro stability (radiolysis) in saline [3]: no radiolysis detected | stability in mouse serum (Stability in mouse serum): minimal radiometabolite formation | stability in rat serum (Stability in rat serum): minimal radiometabolite formation | stability in NHP serum (Stability in NHP serum): minimal radiometabolite formation | stability in human serum (Stability in human serum): minimal radiometabolite formation | SUVmax in striatum (CYP46A1 [4]; SD rats, baseline PET): 4.1 | SUVmax in thalamus (CYP46A1 [4]; SD rats, baseline PET): 4.2 | brain uptake SUV (CYP46A1 [4]; rodents): > 4 | bone uptake (radiodefluorination) ([5]; 5-60 min): No obvious increase in bone uptake | liver uptake ([5]; 60 min): 6.5 % ID/g | initial uptake in brain, small intestine, kidney and liver ([5]; initially): ~10 % ID/g | unchanged [^18F]5 in brain ([6]; 20 min postadministration): 93% | unchanged [^18F]5 in plasma ([6]; 20 min postadministration): 29% | unchanged [^18F]5 in brain ([6]; 60 min postadministration): 92% | unchanged [^18F]5 in plasma ([6]; 60 min postadministration): 23%
SMILES: O=C(N1CC([18F])C1)N1CCc2c(-c3cnco3)cc(C(F)(F)F)cc21 [[^18F]5]

SMILES: O=C(c1cccnc1-c1ccncc1)N1CCC(O)(Cc2ccccc2)CC1 [Soticlestat, reference compound]
brain signal in displacement (chase) study (CYP46A1 [4]; 1 mg/kg i.v. at 20 min postadministration of [^18F]5): markedly reduced

SMILES: CN(C(=O)C1CCN(c2cncnc2-c2ccc([18F])cc2)CC1)C1CC1 [[^18F]CHL2205]
binding specificity toward CYP46A1 (CYP46A1 [1]): good binding specificity | brain uptake (CYP46A1 [1]): high brain uptake

IC50 (CYP46A1 [2]): 0.11 nM | logD [7]: 3.16 | off-target binding (>50% inhibition) (67 major CNS targets): no significant off-target binding | Kd (CYP46A1 [8]): 0.37 nM
SMILES: O=C(N1CC(F)C1)N1CCc2c(-c3cnco3)cc(C(F)(F)F)cc21 [Compound 5, (3-fluoroazetidin-1-yl)(4-(oxazol-5-yl)-6-(trifluoromethyl)indolin-1-yl)methanone]

Reference: article PMC11915032, “Development of a Novel ^18F-Labeled Radioligand for Imaging Cholesterol 24-Hydroxylase with Positron Emission Tomography” (ACS Pharmacology & Translational Science, 2025)
